One test addresses T1, JAK2 (Homo sapiens, UniProt O60674).
T1 construct: made in house
Put plainly: Competition binding assay to determine Kd against JAK kinases: JAK2. The procedure: (§1) Competition binding assays used herein were developed, validated and performed as described in Fabian et al., Nature Biotechnology 2005, 23, 329-336. Kinases were produced as fusions to T7 phage (See, Fabian et al. or WO04/015142) or alternatively, the kinases were expressed in HEK-293 cells and subsequently tagged with DNA for PCR detection (See, WO08/005,310). For the binding assays, streptavidin-coated magnetic beads were treated with biotinylated affinity ligands for 30 min at rt to generate affinity resins. The liganded beads were blocked with excess biotin and washed with blocking buffer (SeaBlock (Pierce), 1% BSA, 0.05% Tween 20, 1 mM DTT) to remove unbound ligand and to reduce non-specific binding. Binding reactions were assembled by combining kinase, liganded affinity beads, and test compounds in 1× binding buffer (20% SeaBlock, 0.17×PBS, 0.05% Tween 20, 6 mM DTT). Test compounds were prepared as 100× stocks in DMSO and rapidly diluted into the aqueous environment. DMSO was added to control assays lacking a test compound. Primary screen interactions were performed in polypropylene 384-well plates in a final volume of 34 μL, while Kd determinations were performed in polystyrene 96-well plates in a final volume of 135 μL. The assay plates were incubated at room temperature with shaking for 1 hour, long enough for binding reactions to reach equilibrium, and the affinity beads were washed extensively with wash buffer (1×PBS, 0.05% Tween 20) to remove unbound protein. The beads were then resuspended in elution buffer (1×PBS, 0.05% Tween 20, 2 μM non-biotinylated affinity ligand) and incubated at room temperature with shaking for 30 min. The kinase concentration in the eluates was measured by quantitative PCR. Each kinase was tested individually against each compound. Kds were determined using eleven serial threefold dilutions. A selectivity score, which is a quantitative measure of selectivity of a compound against a panel of enzymes, may be calculated for a compound by dividing the number of enzymes for which a compound meets a set criteria, (for example, a binding constant of 100 nM or less), by the total number of enzymes tested.

The subject of test [1] is GM-CSFR/JAK2/STAT5 pathway in CSTF-1 cells. The test is described as follows: CSTF-1 cell-based reporter assay (beta-lactamase reporter, GM-CSF stimulated). The settings on record: Homo sapiens, GM-CSF at 2 ng/mL, 4 hours, read-out: Cell Assay: CS TF-1 reporter assay IC50. The procedure:
CSTF-1 cells are derived from the human erythroleukemia cell line that is growth dependent on GM-CSF and has an intact GM-CSFR/JAK2/STAT5 pathway. The cell line contains stably integrated beta-lactamase reporter gene under the control of the […] (irf 1) response element recognized by the activated transcription factor STAT5. csTF-1 cells (Invitrogen K1219) were washed with assay media (97% OPTIMEM/0.5% dialyzed FBS/0.1 mM NEAA/1 mM Na pyr/P/S) and seeded in the same media at 5×10^5 cell/mL in T150 flask. After 16 hour incubation, cells were seeded at 2×10^5 cell/well in 50 μl volume, into Costar, clear bottom, 96-well assay plates. Serial dilutions of compounds were added to the plates with final DMSO concentration at 0.5% and GM-CSF at 2 ng/mL and the plates were then incubated at 30° C. and 5% CO2 for 4 hours. The plates were brought to room temperature before adding Substrate Mixture according to manufacturer's protocol (Invitrogen, Catalog #K1085). The assay plates containing the substrate mixture were incubated in the dark at room temperature for 2 hours. Blue and green fluorescence was measured with excitation at 409 nm and emission at 460 nm (for blue) and excitation at 409 nm and emission at 530 nm (for green) using Spectra Max Gemini EM.

The target in the next test is T2, JAK3 (Homo sapiens, UniProt P52333).
T2 construct: made in house
T2 sequence (P52333 1-1124): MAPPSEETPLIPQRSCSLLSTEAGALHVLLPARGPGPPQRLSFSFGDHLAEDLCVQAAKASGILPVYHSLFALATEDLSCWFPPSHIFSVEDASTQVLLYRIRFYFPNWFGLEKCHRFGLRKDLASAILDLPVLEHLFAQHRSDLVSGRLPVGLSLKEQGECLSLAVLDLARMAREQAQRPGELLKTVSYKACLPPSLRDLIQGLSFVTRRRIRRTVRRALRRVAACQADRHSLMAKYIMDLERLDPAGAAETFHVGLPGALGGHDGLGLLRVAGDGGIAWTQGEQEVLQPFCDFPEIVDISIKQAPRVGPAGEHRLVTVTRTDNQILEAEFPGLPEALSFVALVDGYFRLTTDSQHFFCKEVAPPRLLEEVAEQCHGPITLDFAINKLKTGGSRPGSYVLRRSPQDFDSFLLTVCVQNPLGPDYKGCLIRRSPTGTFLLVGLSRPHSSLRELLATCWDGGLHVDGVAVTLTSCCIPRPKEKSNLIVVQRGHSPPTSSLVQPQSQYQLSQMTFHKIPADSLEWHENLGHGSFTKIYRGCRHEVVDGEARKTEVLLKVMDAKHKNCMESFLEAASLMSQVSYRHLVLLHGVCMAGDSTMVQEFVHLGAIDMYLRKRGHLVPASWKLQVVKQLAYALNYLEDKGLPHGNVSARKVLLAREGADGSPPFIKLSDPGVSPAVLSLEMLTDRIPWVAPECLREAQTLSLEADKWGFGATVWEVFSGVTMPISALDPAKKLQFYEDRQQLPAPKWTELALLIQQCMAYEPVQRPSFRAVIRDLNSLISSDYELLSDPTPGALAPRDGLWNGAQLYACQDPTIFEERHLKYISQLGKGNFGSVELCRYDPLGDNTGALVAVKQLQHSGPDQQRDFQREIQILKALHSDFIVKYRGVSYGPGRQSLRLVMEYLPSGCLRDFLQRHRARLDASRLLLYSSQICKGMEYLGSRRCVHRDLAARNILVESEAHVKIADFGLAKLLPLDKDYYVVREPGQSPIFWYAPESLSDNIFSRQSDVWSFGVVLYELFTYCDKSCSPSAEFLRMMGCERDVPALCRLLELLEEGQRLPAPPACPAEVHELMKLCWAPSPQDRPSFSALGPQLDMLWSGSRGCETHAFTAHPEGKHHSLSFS
The test is described as follows: Competition binding assay to determine Kd against JAK kinases: JAK3. The procedure: as §1

Test [2] deals with panel of distinct kinases excluding mutant variants, typically 359 or 386 kinases. The test is described as follows: Kinase selectivity score S10 from competition binding panel. The settings on record: compound at 10 μM; fraction of kinases with inhibition of 90% or greater. The method, then: as §1
In another test the target is T3, TYK2 (Homo sapiens, UniProt P29597).
T3 construct: made in house
T3 sequence (P29597 whole entry): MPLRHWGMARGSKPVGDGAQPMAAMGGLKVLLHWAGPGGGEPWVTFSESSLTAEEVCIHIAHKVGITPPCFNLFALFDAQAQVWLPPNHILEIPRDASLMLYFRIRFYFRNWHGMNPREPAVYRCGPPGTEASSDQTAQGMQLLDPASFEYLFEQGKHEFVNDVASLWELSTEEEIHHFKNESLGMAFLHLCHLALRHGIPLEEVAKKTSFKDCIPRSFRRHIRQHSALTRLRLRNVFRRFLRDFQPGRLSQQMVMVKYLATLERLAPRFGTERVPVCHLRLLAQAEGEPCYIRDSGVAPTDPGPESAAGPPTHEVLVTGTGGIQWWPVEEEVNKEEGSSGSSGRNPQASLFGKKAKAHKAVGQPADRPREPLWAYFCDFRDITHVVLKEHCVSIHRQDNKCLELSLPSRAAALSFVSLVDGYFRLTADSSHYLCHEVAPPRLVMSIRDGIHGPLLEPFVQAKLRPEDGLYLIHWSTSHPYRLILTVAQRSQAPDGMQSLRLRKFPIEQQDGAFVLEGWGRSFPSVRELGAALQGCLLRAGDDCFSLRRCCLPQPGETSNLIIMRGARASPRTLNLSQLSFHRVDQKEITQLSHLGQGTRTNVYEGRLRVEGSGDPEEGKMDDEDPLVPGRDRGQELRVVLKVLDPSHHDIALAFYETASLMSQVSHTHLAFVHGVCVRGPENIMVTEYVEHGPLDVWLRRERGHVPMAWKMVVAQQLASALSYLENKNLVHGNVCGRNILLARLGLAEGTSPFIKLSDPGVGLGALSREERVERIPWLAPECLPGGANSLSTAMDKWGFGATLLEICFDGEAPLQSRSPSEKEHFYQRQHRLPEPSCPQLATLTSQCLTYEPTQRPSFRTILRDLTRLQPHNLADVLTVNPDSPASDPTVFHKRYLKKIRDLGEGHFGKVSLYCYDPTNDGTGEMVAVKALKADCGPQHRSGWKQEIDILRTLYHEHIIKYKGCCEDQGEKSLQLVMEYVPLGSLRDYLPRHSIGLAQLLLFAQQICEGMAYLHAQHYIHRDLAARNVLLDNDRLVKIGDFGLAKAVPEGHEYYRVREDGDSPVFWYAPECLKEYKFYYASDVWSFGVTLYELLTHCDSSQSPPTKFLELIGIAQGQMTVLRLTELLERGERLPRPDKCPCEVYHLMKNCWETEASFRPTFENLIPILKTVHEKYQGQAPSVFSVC
The test is described as follows: Competition binding assay to determine Kd against JAK kinases: TYK2. The method, then: as §1

The values that follow come from US20130296363A1, “QUINOLINE AND ISOQUINOLINE DERIVATIVES FOR USE AS JAK MODULATORS” (AMBIT BIOSCIENCES CORPORATION, priority 2010, published 2013).

T1 sequence (O60674 whole entry): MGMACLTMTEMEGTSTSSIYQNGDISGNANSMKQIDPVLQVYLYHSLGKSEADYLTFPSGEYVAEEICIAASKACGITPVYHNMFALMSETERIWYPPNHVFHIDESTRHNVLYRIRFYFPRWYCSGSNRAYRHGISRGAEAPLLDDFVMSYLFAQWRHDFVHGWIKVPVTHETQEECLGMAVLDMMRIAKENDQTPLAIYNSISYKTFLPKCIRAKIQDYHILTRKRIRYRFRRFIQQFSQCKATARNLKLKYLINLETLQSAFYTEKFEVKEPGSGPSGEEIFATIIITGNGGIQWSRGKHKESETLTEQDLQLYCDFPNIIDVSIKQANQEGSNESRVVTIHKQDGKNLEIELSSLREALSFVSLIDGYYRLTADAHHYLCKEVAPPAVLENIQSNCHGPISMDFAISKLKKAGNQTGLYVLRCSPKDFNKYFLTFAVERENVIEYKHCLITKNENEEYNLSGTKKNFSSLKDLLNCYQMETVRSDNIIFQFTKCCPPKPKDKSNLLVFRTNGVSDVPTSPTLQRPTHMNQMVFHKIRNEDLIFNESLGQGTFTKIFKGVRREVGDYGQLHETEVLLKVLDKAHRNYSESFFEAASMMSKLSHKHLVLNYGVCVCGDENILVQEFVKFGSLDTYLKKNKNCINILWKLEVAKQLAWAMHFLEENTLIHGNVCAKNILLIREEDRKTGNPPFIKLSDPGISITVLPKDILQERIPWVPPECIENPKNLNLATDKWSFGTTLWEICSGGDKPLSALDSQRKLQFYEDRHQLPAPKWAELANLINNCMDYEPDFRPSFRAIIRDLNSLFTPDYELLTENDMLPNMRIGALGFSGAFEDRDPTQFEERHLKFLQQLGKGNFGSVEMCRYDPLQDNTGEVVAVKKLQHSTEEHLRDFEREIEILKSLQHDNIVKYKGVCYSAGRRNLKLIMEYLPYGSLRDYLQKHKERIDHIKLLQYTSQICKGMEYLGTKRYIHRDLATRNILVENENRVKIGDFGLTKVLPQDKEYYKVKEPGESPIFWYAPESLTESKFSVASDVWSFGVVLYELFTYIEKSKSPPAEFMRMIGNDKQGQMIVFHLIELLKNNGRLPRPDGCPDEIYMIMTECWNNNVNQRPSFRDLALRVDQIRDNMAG

Consider `Cc1cc(Nc2nc(S(=O)(=O)c3ccc(F)cc3)cc3ccccc23)n[nH]1` [Example 10, 3-(4-fluorophenylsulfonyl)-N-(5-methyl-1H-pyrazol-3-yl)isoquinolin-1-amine], for which the Kd on JAK2 is at most 0.005 µM; at JAK3, at most 0.01 µM; at TYK2 it was at most 0.01 µM. In addition, the IC50 in test [1] was at most 0.1 µM. For the same compound, the “S-Score: S(10) at 10 μM” value in test [2] is “D (D > 0.5)”.
For `Cc1cnc(Nc2nc([S+]([O-])c3ccc(F)cc3)cc3ccccc23)s1` (stereo not shown) [Example 12, N-(3-(4-fluorophenylsulfinyl)isoquinolin-1-yl)-5-methylthiazol-2-amine], the Kd at JAK2 is at most 0.005 µM; on JAK3 it was 0.01 to 0.1 µM; at TYK2 it was at most 0.01 µM. Also, the IC50 in test [1] was at most 0.1 µM. In addition, the “S-Score: S(10) at 10 μM” value in test [2] is “C (0.4 < C ≦ 0.5)”.
Turning to `O=S(=O)(c1ccc(F)cc1)c1cc2ccccc2c(Nc2cc(O)[nH]n2)n1` [Example 19, 3-(3-(4-fluorophenylsulfonyl)isoquinolin-1-ylamino)-1H-pyrazol-5-ol], the values for the Kd at JAK2, on JAK3 and on TYK2 were 0.005 to 0.05 µM, above 0.1 µM and 0.01 to 0.1 µM, respectively. Further, in test [1], the IC50 was above 0.5 µM. For the same compound, the “S-Score: S(10) at 10 μM” value in test [2] was “A (A ≦ 0.3)”.
For `[2H]C([2H])([2H])n1cnc(Nc2nc(S(=O)(=O)c3ccc(F)cc3)cc3ccccc23)c1` [Example 24, 3-((4-fluorophenyl)sulfonyl)-N-(1-methyl-d3-1H-imidazol-4-yl)isoquinolin-1-amine], in that order: at most 0.005 µM, at most 0.01 µM, at most 0.01 µM, at most 0.1 µM and “B (0.3 < B ≦ 0.4)”.
For `[O-][S+](c1ccc(F)cc1)c1cc2ccccc2c(Nc2nccs2)n1` (stereo not shown) [Example 11, N-(3-(4-fluorophenylsulfinyl)isoquinolin-1-yl)thiazol-2-amine], the Kd is at most 0.005 µM on JAK2 and 0.01 to 0.1 µM on JAK3. Also, in test [1], the IC50 is at most 0.1 µM. The “S-Score: S(10) at 10 μM” value in test [2] was “A (A ≦ 0.3)”.
As to `O=S(=O)(c1ccc(F)cc1)c1cc2ccccc2c(Nc2cc[nH]n2)n1` [Example 14, 3-(4-fluorophenylsulfonyl)-N-(1H-pyrazol-3-yl)isoquinolin-1-amine], the Kd on JAK2 is at most 0.005 µM; on JAK3, at most 0.01 µM; on TYK2 it was at most 0.01 µM. Besides, the IC50 in test [1] was at most 0.1 µM. Further, the “S-Score: S(10) at 10 μM” value in test [2] was “B (0.3 < B ≦ 0.4)”.
Consider `CCn1cnc(Nc2nc(S(=O)(=O)c3ccc(F)cc3)cc3ccccc23)c1` [Example 25, N-(1-ethyl-1H-imidazol-4-yl)-3-((4-fluorophenyl)sulfonyl)isoquinolin-1-amine], for which the equilibrium dissociation constant (Kd) was at most 0.005 µM on JAK2, at most 0.01 µM on JAK3 and at most 0.01 µM at TYK2. Also, the IC50 in test [1] is at most 0.1 µM. Further, the “S-Score: S(10) at 10 μM” value in test [2] is “C (0.4 < C ≦ 0.5)”.
Take `Cc1cc(Nc2nc([S+]([O-])c3ccc(F)cc3)cc3ccccc23)n[nH]1` (stereo not shown) [Example 13, 3-(4-fluorophenylsulfinyl)-N-(5-methyl-1H-pyrazol-3-yl)isoquinolin-1-amine]: the Kd was at most 0.005 µM at JAK2, at most 0.01 µM at JAK3 and at most 0.01 µM at TYK2. Moreover, the IC50 in test [1] was at most 0.1 µM. For the same compound, the “S-Score: S(10) at 10 μM” value in test [2] is reported as “D (D > 0.5)”.
Consider `Cc1cc(Nc2nc(C(=O)c3ccc(F)cc3)cc3ccccc23)n[nH]1` [Example 1, (4-fluorophenyl)(1-(5-methyl-1H-pyrazol-3-ylamino)isoquinolin-3-yl)methanone], for which the Kd at JAK2 is at most 0.005 µM; on JAK3, 0.01 to 0.1 µM; on TYK2, at most 0.01 µM. The IC50 in test [1] lay in the range of 0.1 to 0.5 µM. The “S-Score: S(10) at 10 μM” value in test [2] is “A (A ≦ 0.3)”.
On the same counts, the results for `Cc1cnc(Nc2nc(S(=O)(=O)c3ccc(F)cc3)cc3ccccc23)s1` [Example 16, N-(3-(4-fluorophenylsulfonyl)isoquinolin-1-yl)-5-methylthiazol-2-amine] are at most 0.005 µM, at most 0.01 µM, at most 0.01 µM, at most 0.1 µM and “B (0.3 < B ≦ 0.4)”.
On the same counts, the results for `COc1cc(Nc2nc(S(=O)(=O)c3ccc(F)cc3)cc3ccccc23)n[nH]1` [Example 15, 3-(4-fluorophenylsulfonyl)-N-(5-methoxy-1H-pyrazol-3-yl)isoquinolin-1-amine] are at most 0.005 µM, at most 0.01 µM, at most 0.01 µM, at most 0.1 µM and “D (D > 0.5)”.
For `O=S(=O)(c1ccc(F)cc1)c1cc2ccccc2c(Nc2nccs2)n1` [Example 17, N-(3-(4-fluorophenylsulfonyl)isoquinolin-1-yl)thiazol-2-amine], in that order: at most 0.005 µM, 0.01 to 0.1 µM, 0.01 to 0.1 µM, 0.1 to 0.5 µM and “A (A ≦ 0.3)”.
Consider `Cc1coc(Nc2nc([S+]([O-])c3ccc(F)cc3)cc3ccccc23)n1` (racemic) [Example 22, (R,S)—N-(3-(4-fluorophenylsulfinyl)isoquinolin-1-yl)-4-methyloxazol-2-amine], for which the Kd at JAK2 was above 0.05 µM; on JAK3, above 0.1 µM. Further, the IC50 in test [1] was above 0.5 µM. Further, in test [2], the “S-Score: S(10) at 10 μM” value was “A (A ≦ 0.3)”.
Turning to `Cc1cc(Nc2nc(C(O)c3ccc(F)cc3)cc3ccccc23)n[nH]1` (racemic) [Example 2, (R,S)-(4-fluorophenyl)(1-(5-methyl-1H-pyrazol-3-ylamino)isoquinolin-3-yl)methanol], the Kd was at most 0.005 µM at JAK2, at most 0.01 µM on JAK3 and at most 0.01 µM on TYK2. Also, the IC50 in test [1] is at most 0.1 µM.
